{"source": "ChEMBL document CHEMBL1125202", "about": "(J Med Chem, 1991)", "data": [{"biological_target": "Sodium/potassium-transporting ATPase", "assay": "Inhibition of [3H]ouabain binding to Na/K ATP-ase in dog heart muscle", "assay_type": "tissue-based, Canis lupus familiaris, Muscle tissue", "units": {"IC50": "nM"}, "values": [{"smiles": "C[C@]12CC[C@H](OC[C@H]3O[C@H](O)[C@H](O)[C@@H](O)[C@@H]3O)CC1CC[C@@H]1[C@@H]2CC[C@]2(C)[C@@H](C3=CC(=O)OC3)CC[C@@]12O", "note": "(stereo not given in full)", "IC50": 7}, {"smiles": "CC(O)C1CCC2(O)C3CCC4C[C@@H](OC[C@H]5O[C@@H](O)[C@H](O)[C@H](O)[C@H]5O)CCC4(C)C3CCC12C", "note": "(stereo not given in full)", "IC50": 400}, {"smiles": "CC(=O)C1CCC2(O)C3CCC4C[C@@H](OC[C@H]5O[C@@H](O)[C@H](O)[C@H](O)[C@H]5O)CCC4(C)C3CCC12C", "note": "(stereo not given in full)", "IC50": 500}, {"smiles": "C[C@]12CC[C@H](OC[C@H]3O[C@H](O)[C@H](O)[C@@H](O)[C@@H]3O)CC1CC[C@@H]1[C@@H]2CC[C@]2(C)[C@H](C3=CC(=O)OC3)CC[C@@]12O", "note": "(stereo not given in full)", "IC50": 3}, {"smiles": "CC(O)C1CCC2(O)C3CCC4C[C@H](OC[C@H]5O[C@@H](O)[C@H](O)[C@H](O)[C@H]5O)CCC4(C)C3CCC12C", "note": "(stereo not given in full)", "IC50": 75}, {"smiles": "CC(=O)C1CCC2(O)C3CCC4C[C@H](OC[C@H]5O[C@@H](O)[C@H](O)[C@H](O)[C@H]5O)CCC4(C)C3CCC12C", "note": "(stereo not given in full)", "IC50": 150}, {"smiles": "C[C@]12CC[C@H](OC[C@@H]3O[C@H](OC[C@@H]4O[C@H](OC[C@@H]5O[C@H](O)C[C@@H](O)[C@H]5O)C[C@@H](O)[C@H]4O)C[C@@H](O)[C@H]3O)C[C@@H]1CC[C@@H]1[C@@H]2CC[C@]2(C)[C@@H](C3=CC(=O)OC3)CC[C@@]12O", "IC50": 8}, {"smiles": "C[C@]12CC[C@H](OC[C@@H]3O[C@H](O)C[C@@H](O)[C@H]3O)C[C@@H]1CC[C@@H]1[C@@H]2CC[C@]2(C)[C@@H](C3=CC(=O)OC3)CC[C@@]12O", "IC50": 9}, {"smiles": "CC(O)[C@H]1CC[C@@]2(O)[C@@H]3CC[C@H]4C[C@@H](OC[C@@H]5O[C@H](OC[C@@H]6O[C@H](OC[C@@H]7O[C@H](O)C[C@@H](O)[C@H]7O)C[C@@H](O)[C@H]6O)C[C@@H](O)[C@H]5O)CC[C@]4(C)[C@H]3CC[C@]12C", "note": "(stereo not given in full)", "IC50": 650}, {"smiles": "CC(=O)[C@H]1CC[C@@]2(O)[C@@H]3CC[C@H]4C[C@@H](OC[C@@H]5O[C@H](OC[C@@H]6O[C@H](OC[C@@H]7O[C@H](O)C[C@@H](O)[C@H]7O)C[C@@H](O)[C@H]6O)C[C@@H](O)[C@H]5O)CC[C@]4(C)[C@H]3CC[C@]12C", "IC50": 1000}, {"smiles": "CC(O)[C@H]1CC[C@@]2(O)[C@@H]3CC[C@H]4C[C@@H](OC[C@@H]5O[C@H](O)C[C@@H](O)[C@H]5O)CC[C@]4(C)[C@H]3CC[C@]12C", "note": "(stereo not given in full)", "IC50": 650}, {"smiles": "C[C@]12CCCC[C@@H]1CC[C@@H]1[C@@H]2CC[C@]2(C)[C@@H](C3=CC(=O)OC3)CC[C@@]12O", "IC50": 70}, {"smiles": "C[C@]12CC[C@H](OC[C@@H]3O[C@H](OC[C@@H]4O[C@H](O)C[C@@H](O)[C@H]4O)C[C@@H](O)[C@H]3O)C[C@@H]1CC[C@@H]1[C@@H]2CC[C@]2(C)[C@@H](C3=CC(=O)OC3)CC[C@@]12O", "IC50": 8}, {"smiles": "CC(O)[C@H]1CC[C@@]2(O)[C@@H]3CC[C@H]4CCCC[C@]4(C)[C@H]3CC[C@]12C", "note": "(stereo not given in full)", "IC50": 24000}, {"smiles": "CC(=O)[C@H]1CC[C@@]2(O)[C@@H]3CC[C@H]4CCCC[C@]4(C)[C@H]3CC[C@]12C", "IC50": "> 200000"}, {"smiles": "C[C@H](O)C1CC[C@@]2(O)[C@@H]3CC[C@H]4C[C@@H](OC[C@@H]5O[C@H](OC[C@@H]6O[C@H](O)C[C@@H](O)[C@H]6O)C[C@@H](O)[C@H]5O)CC[C@]4(C)[C@H]3CC[C@]12C", "note": "(stereo not given in full)", "IC50": 650}, {"smiles": "CC(=O)[C@H]1CC[C@@]2(O)[C@@H]3CC[C@H]4C[C@@H](OC[C@@H]5O[C@H](OC[C@@H]6O[C@H](O)C[C@@H](O)[C@H]6O)C[C@@H](O)[C@H]5O)CC[C@]4(C)[C@H]3CC[C@]12C", "IC50": 800}, {"smiles": "CC(=O)[C@H]1CC[C@@]2(O)[C@@H]3CC[C@H]4C[C@@H](OC[C@@H]5O[C@H](O)C[C@@H](O)[C@H]5O)CC[C@]4(C)[C@H]3CC[C@]12C", "IC50": 1300}, {"smiles": "CC(O)[C@H]1CC[C@@]2(O)[C@@H]3CCC4C[C@@H](O)CC[C@]4(C)[C@H]3CC[C@]12C", "note": "(stereo not given in full)", "IC50": 6400}, {"smiles": "CC(=O)[C@H]1CC[C@@]2(O)[C@@H]3CC[C@H]4C[C@@H](O)CC[C@]4(C)[C@H]3CC[C@]12C", "IC50": 20000}]}]}
